Test results from paper PMC7294773 (Neuropharmacology, 2017).
“Also recorded” adds a separate entry of the source. Where two headings read alike, the source gives them in different places.

Legend:
[1] = tested on: vesicular monoamine transporter 2 (VMAT2); details: at concentrations up to 100 μM; ref Partilla et al., 2006; cited from earlier work
DAT [2] = target: T1, DAT (Rattus norvegicus, UniProt P23977); details: in vitro findings; ref Rothman et al., 2002; cited from earlier work
[3] = tested on: extracellular dopamine and serotonin in rat nucleus accumbens; details: systemic administration, ref Rothman et al., 2002; cited from earlier work
hDAT [4] = target: T2, hDAT (Homo sapiens, UniProt Q01959); details: ref Solis et al., 2016; cited from earlier work
T2 sequence (Q01959 whole entry): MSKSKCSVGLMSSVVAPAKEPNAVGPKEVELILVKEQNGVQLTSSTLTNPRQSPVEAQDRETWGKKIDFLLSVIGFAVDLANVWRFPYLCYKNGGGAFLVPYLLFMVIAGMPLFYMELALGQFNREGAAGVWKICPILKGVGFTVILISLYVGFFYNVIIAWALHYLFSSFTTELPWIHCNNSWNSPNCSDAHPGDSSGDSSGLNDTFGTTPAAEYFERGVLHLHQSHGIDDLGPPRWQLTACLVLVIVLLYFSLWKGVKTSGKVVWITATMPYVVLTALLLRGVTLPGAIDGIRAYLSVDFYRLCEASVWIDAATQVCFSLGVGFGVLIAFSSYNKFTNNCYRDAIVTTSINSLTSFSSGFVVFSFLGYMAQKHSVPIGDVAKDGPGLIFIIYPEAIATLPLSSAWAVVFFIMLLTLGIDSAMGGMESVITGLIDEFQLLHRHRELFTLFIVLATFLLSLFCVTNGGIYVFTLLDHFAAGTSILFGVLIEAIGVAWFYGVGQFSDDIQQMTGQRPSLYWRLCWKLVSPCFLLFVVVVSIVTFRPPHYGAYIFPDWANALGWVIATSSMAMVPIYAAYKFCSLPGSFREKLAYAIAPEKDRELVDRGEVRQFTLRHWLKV

hSERT [5] = target: T3, hSERT (Homo sapiens, UniProt P31645); details: for Ionic current mediated via hSERT: cells clamped to −60 mV, representative traces; for Kind of current evoked in SERT-expressing cells: whole-cell patch clamp, in words
T3 sequence (P31645 whole entry): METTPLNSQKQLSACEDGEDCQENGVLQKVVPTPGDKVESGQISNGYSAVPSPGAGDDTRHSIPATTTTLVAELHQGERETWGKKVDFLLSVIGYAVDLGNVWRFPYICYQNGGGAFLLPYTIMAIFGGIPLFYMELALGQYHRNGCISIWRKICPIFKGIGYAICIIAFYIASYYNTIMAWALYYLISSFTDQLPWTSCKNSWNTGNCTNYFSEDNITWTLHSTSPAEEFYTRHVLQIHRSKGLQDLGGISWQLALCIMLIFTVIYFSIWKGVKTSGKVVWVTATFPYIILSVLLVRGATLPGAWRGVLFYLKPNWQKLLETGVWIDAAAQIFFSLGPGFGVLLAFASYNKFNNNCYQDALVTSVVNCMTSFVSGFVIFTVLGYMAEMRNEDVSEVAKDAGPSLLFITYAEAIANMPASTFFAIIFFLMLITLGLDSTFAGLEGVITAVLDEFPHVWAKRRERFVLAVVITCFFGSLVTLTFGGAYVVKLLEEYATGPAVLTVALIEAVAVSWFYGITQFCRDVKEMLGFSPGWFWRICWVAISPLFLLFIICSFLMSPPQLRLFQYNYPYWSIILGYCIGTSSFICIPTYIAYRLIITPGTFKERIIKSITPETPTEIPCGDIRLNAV

human DAT (hDAT) = human DAT (hDAT) (Homo sapiens, UniProt Q01959); assay: Radiotracer uptake inhibition in HEK293 cells expressing hDAT; type: cell-based; details: for DAT / NET ratio (uptake inhibition): 1/(DAT IC50) divided by 1/(NET IC50); for DAT / SERT ratio (uptake inhibition): 1/(DAT IC50) divided by 1/(SERT IC50); for IC50: IC50 DAT, inhibition of transporter-mediated uptake, hDAT, [3H]MPP+ 20 nM, mean ± SEM, n=3
Chain of human DAT (hDAT) (Q01959 whole entry): as the sequence (Q01959 whole entry) above

human NET (hNET) = human NET (hNET) (Homo sapiens, UniProt P23975); assay: Radiotracer uptake inhibition in HEK293 cells expressing hNET; type: cell-based; details: for NET / SERT ratio (uptake inhibition): 1/(NET IC50) divided by 1/(SERT IC50); for IC50: IC50 NET, inhibition of transporter-mediated uptake, hNET, [3H]MPP+ 20 nM, mean ± SEM, n=3
Chain of human NET (hNET) (P23975 whole entry): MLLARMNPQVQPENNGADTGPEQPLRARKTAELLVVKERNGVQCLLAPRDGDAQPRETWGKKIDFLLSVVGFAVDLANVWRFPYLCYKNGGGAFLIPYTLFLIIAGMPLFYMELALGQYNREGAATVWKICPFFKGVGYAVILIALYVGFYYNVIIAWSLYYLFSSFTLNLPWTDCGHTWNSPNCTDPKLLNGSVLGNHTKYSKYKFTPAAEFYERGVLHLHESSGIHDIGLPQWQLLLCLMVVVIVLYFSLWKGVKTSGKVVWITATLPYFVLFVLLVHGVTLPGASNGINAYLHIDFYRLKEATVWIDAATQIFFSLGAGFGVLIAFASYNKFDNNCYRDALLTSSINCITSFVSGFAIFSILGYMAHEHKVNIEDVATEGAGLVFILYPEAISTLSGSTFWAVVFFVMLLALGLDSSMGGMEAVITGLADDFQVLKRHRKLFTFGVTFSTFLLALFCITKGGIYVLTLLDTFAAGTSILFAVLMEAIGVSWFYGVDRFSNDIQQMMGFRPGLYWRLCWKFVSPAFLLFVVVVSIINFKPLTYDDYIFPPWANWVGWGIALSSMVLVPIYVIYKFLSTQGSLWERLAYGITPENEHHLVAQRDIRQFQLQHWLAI

human SERT (hSERT) = human SERT (hSERT) (Homo sapiens, UniProt P31645); assay: Radiotracer uptake inhibition in HEK293 cells expressing hSERT; type: cell-based; details: for IC50: IC50 SERT, inhibition of transporter-mediated uptake, hSERT, [3H]5HT 100 nM, mean ± SEM, n=3
Chain of human SERT (hSERT) (P31645 whole entry): as the sequence (P31645 whole entry) above

hDAT [6] = target: T2, hDAT; type: cell-based; details: 5 µM, without monensin, HEK293 cells
hNET = hNET (Homo sapiens, UniProt P23975); type: cell-based; details: 5 µM, without monensin, HEK293 cells
Chain of hNET (P23975 whole entry): as the sequence (P23975 whole entry) above

hSERT [7] = target: T3, hSERT; type: cell-based; details: 5 µM, without monensin, HEK293 cells
DAT [8] = target: T1, DAT; assay: Release of [3H]MPP+ from rat striatal synaptosomes; type: biochemical; details: for DAT / NET ratio (release): 1/(DAT EC50) divided by 1/(NET EC50); for DAT / NET ratio (release) / DAT / SERT ratio (release): rat brain synaptosomes; for DAT / SERT ratio (release): 1/(DAT EC50) divided by 1/(SERT EC50)
NET = assay: Release of [3H]MPP+ from rat brain synaptosomes; type: biochemical; details: 1/(NET EC50) divided by 1/(SERT EC50)
SERT = SERT (Rattus norvegicus, UniProt P31652); assay: Release of [3H]5-HT from rat brain synaptosomes; type: biochemical
Chain of SERT (P31652 whole entry): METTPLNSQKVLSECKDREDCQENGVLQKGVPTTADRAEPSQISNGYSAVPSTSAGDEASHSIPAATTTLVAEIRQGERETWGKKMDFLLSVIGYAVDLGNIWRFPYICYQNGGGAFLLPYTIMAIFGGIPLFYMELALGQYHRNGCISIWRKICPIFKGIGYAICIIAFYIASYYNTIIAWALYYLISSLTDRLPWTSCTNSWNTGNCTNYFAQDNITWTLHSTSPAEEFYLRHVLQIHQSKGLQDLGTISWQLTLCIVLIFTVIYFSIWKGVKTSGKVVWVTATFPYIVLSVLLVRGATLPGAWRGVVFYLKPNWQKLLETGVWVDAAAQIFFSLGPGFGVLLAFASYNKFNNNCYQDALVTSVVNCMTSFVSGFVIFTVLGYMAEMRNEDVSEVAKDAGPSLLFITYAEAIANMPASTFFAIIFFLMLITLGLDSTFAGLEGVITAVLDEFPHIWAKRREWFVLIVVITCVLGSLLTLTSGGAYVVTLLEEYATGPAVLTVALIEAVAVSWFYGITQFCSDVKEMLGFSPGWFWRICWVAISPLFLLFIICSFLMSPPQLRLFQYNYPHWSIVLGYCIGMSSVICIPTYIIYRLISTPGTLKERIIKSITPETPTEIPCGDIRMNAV

T1 sequence (P23977 whole entry): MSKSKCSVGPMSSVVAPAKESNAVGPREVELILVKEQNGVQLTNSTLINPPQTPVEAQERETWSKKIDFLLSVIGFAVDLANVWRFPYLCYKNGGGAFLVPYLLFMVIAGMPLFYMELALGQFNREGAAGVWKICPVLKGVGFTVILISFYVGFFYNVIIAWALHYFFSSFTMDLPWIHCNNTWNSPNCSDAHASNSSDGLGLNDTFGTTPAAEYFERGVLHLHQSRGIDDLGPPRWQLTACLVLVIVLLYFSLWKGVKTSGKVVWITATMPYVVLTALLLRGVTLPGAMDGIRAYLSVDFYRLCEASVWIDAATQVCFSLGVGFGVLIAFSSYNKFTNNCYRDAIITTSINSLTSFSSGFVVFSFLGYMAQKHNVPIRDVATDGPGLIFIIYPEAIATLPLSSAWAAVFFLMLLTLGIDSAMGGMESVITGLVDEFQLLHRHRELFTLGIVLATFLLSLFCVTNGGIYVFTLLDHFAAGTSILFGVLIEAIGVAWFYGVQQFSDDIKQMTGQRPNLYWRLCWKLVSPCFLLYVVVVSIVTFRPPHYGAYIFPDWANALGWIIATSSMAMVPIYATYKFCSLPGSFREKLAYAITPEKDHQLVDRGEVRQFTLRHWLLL

For CC1NCCOC1c1ccccc1 (centres unmarked) [phenmetrazine], the “Interaction with VMAT2 as an inhibitor or substrate” value [1] is listed as “does not interact”, the “DAT-selectivity compared to SERT” value (DAT [2]) is listed as “at least 10 fold” and the “Extracellular dopamine and serotonin in nucleus accumbens” value [3] is listed as “dose-related elevations”. The “Current induced in cells expressing hDAT” value (hDAT [4]) was “inwardly-directed sodium current”.

In the case of COC(=O)[C@H]1[C@@H](OC(=O)c2ccccc2)C[C@@H]2CC[C@H]1N2C [cocaine, reference compound], the “Ionic current mediated via hSERT” value (hSERT [5]; 10 µM) is reported as “outwardly directed current”.

With CC1NCCOC1c1ccccc1F (centres unmarked) [2-FPM, 2-(2-Fluorophenyl)-3-methylmorpholine] the “DAT / NET ratio (uptake inhibition)” value (human DAT (hDAT)) was 0.97, the “DAT / SERT ratio (uptake inhibition)” value (human DAT (hDAT)) was 340.1 and the IC50 (human DAT (hDAT)) was 1330 ± 90 nM. The “NET / SERT ratio (uptake inhibition)” value (human NET (hNET)) was 351.4, the IC50 (human NET (hNET)) was 1290 ± 30 nM and the IC50 (human SERT (hSERT)) was 454000 ± 15400 nM. The “Effect on SERT mediated uptake” value (human SERT (hSERT); at concentrations below 30 µM) was “no obvious effect”, the “Effect on efflux of [3H]MPP+ via hDAT versus basal” value (hDAT [6]) was “increased tritium outflow above basal levels” and the “Effect on efflux of [3H]MPP+ via hNET versus basal” value (hNET) was “increased tritium outflow above basal levels”. For the same compound, the “Effect on efflux of [3H]5-HT via hSERT versus basal” value (hSERT [7]) was “no detectable effect”, the EC50 (DAT [8]) was 112 ± 10 nM and the “DAT / NET ratio (release)” value (DAT [8]) was 0.25. The “DAT / SERT ratio (release)” value (DAT [8]) was 43, the “NET / SERT ratio (release)” value (NET) was 172 and the EC50 (SERT) was 4810 ± 1260 nM. The “Ionic current mediated via hSERT” value (hSERT [5]; 30 µM) was −4 pA and the “Kind of current evoked in SERT-expressing cells” value (“Kind of current evoked” for short) (hSERT [5]) was “inwardly directed ionic currents”.

With CC1NCCOC1c1cccc(F)c1 (centres unmarked) [3-FPM, 2-(3-fluorophenyl)-3-methylmorpholine] the “DAT / NET ratio (uptake inhibition)” value (human DAT (hDAT)) was 1.31, the “DAT / SERT ratio (uptake inhibition)” value (human DAT (hDAT)) was 96.4 and the IC50 (human DAT (hDAT)) was 1160 ± 290 nM. The “NET / SERT ratio (uptake inhibition)” value (human NET (hNET)) was 73.7, the IC50 (human NET (hNET)) was 1510 ± 170 nM and the IC50 (human SERT (hSERT)) was 112000 ± 13100 nM. For the same compound, the EC50 (DAT [8]) was 60 ± 4 nM, the “DAT / NET ratio (release)” value (DAT [8]) was 0.28 and the “DAT / SERT ratio (release)” value (DAT [8]) was 21. For the same compound, the “NET / SERT ratio (release)” value (NET) was 75, the EC50 (SERT) was 1270 ± 207 nM and the “Ionic current mediated via hSERT” value (hSERT [5]; 10 µM) was −3.8 pA. The “Kind of current evoked” value (hSERT [5]) was “inwardly directed ionic currents”.

With NCCc1c[nH]c2ccc(O)cc12 [5-HT, 5-hydroxytryptamine, reference compound] the “Ionic current mediated via hSERT” value (hSERT [5]; 30 µM) was −7 pA and the “Kind of current evoked” value (hSERT [5]) was “inwardly directed ionic currents”.

For CC1NCCOC1c1ccc(F)cc1 (centres unmarked) [4-FPM, 2-(4-fluorophenyl)-3-methylmorpholine], the “DAT / NET ratio (uptake inhibition)” value (human DAT (hDAT)) was 0.96, the “DAT / SERT ratio (uptake inhibition)” value (human DAT (hDAT)) was 41.2 and the IC50 (human DAT (hDAT)) was 2140 ± 390 nM. For the same compound, the “NET / SERT ratio (uptake inhibition)” value (human NET (hNET)) was 42.9, the IC50 (human NET (hNET)) was 2050 ± 280 nM and the IC50 (human SERT (hSERT)) was 88100 ± 1830 nM. The “Effect on efflux of [3H]MPP+ via hDAT versus basal” value (hDAT [6]) was “increased tritium outflow above basal levels”, the “Effect on efflux of [3H]MPP+ via hNET versus basal” value (hNET) was “increased tritium outflow above basal levels” and the “Effect on efflux of [3H]5-HT via hSERT versus basal” value (hSERT [7]) was “significantly enhanced basal release; also recorded: moderate release”. For the same compound, the EC50 (DAT [8]) was 191 ± 17 nM, the “DAT / NET ratio (release)” value (DAT [8]) was 0.30 and the “DAT / SERT ratio (release)” value (DAT [8]) was 10. The “NET / SERT ratio (release)” value (NET) was 33, the EC50 (SERT) was 1890 ± 424 nM and the “Ionic current mediated via hSERT” value (hSERT [5]; 10 µM) was −2.5 pA. The “Kind of current evoked” value (hSERT [5]) was “inwardly directed ionic currents”.
